Our source for the IC50 values is patent US8133901B2, “3-heteroaryl (amino or amido)-1-(biphenyl or phenylthiazolyl) carbonylpiperidine derivatives as orexin receptor inhibitors” (Actelion Pharmaceuticals Ltd., priority 2006, dated 2012).

For one experiment, the target named is T1, human orexin-2 receptor (Homo sapiens, UniProt O43614).
T1 construct: expressed in transfected cells; host or cells: CHO cells (G418 selection)
T1 sequence (O43614 1-444): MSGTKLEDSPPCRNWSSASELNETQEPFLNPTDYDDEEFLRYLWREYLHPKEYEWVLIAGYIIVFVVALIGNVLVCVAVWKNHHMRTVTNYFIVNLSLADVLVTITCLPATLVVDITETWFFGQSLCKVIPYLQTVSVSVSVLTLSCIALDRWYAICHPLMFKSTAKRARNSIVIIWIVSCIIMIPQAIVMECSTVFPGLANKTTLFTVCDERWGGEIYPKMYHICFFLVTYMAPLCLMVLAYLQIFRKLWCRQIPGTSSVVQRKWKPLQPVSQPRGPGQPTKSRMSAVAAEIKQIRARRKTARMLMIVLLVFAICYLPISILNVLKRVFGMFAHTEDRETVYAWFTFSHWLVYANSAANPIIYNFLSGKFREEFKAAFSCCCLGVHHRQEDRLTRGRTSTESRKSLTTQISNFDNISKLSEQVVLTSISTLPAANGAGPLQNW
Kind of experiment: Intracellular calcium measurements (FLIPR), orexin receptor antagonistic activity, OX2. Type of experiment: cell-based. The following applies: CHO cells expressing the human orexin-2 receptor; 10 nM orexin-A as agonist; fluo-3 calcium signal. As to the method: (§1) The orexin receptor antagonistic activity of the compounds of formula (I) is determined in accordance with the following experimental method.
(§2) Chinese hamster ovary (CHO) cells expressing the human orexin-1 receptor and the human orexin-2 receptor, respectively, are grown in culture medium (Ham F-12 with L-Glutamine) containing 300 μg/ml G418, 100 U/ml penicillin, 100 μg/ml streptomycin and 10% inactivated fetal calf serum (FCS). The cells are seeded at 80′000 cells/well into 96-well black clear bottom sterile plates (Costar) which have been precoated with 1% gelatine in Hanks' Balanced Salt Solution (HBSS). All reagents are from Gibco BRL. The seeded plates are incubated overnight at 37° C. in 5% CO2.
(§3) Human orexin-A as an agonist is prepared as 1 mM stock solution in methanol:water (1:1), diluted in HBSS containing 0.1% bovine serum albumin (BSA) and 2 mM HEPES for use in the assay at a final concentration of 10 nM.
(§4) Antagonists are prepared as 10 mM stock solution in DMSO, then diluted in 96-well plates, first in DMSO, then in HBSS containing 0.1% bovine serum albumin (BSA) and 2 mM HEPES.
(§5) On the day of the assay, 100 μl of loading medium (HBSS containing 1% FCS, 2 mM HEPES, 5 mM probenecid (Sigma) and 3 μM of the fluorescent calcium indicator fluo-3 AM (1 mM stock solution in DMSO with 10% pluronic acid) (Molecular Probes) is added to each well.
(§6) The 96-well plates are incubated for 60 min at 37° C. in 5% CO2. The loading solution is then aspirated and cells are washed 3 times with 200 μl HBSS containing 2.5 mM probenecid, 0.1% BSA, 2 mM HEPES. 100 μl of that same buffer is left in each well.
(§7) Within the Fluorescent Imaging Plate Reader (FLIPR, Molecular Devices), antagonists are added to the plate in a volume of 50 μl, incubated for 20 min and finally 100 μl of agonist is added. Fluorescence is measured for each well at 1 second intervals, and the height of each fluorescence peak is compared to the height of the fluorescence peak induced by 10 nM orexin-A with buffer in place of antagonist. For each antagonist, IC50 value (the concentration of compound needed to inhibit 50% of the agonistic response) is determined.
In general terms: Calcium assays in cells follow changes in intracellular calcium, usually with a dye or a luminescent sensor.

For another experiment, the target named is T2, human orexin-1 receptor (Homo sapiens, UniProt O43613).
T2 construct: expressed in transfected cells; host or cells: CHO cells (G418 selection)
T2 sequence (O43613 1-425): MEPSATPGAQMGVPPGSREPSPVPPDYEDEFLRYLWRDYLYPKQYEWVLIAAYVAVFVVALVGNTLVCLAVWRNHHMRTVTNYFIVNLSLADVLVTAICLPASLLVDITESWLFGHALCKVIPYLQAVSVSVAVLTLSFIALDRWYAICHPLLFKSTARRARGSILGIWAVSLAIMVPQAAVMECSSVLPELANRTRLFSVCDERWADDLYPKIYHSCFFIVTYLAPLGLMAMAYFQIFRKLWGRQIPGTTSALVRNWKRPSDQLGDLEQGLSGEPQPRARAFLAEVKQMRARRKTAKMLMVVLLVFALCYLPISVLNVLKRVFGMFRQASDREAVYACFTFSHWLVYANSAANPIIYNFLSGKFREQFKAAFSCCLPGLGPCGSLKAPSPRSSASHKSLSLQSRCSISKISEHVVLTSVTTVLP
Kind of experiment: Intracellular calcium measurements (FLIPR), orexin receptor antagonistic activity, OX1. Type of experiment: cell-based. The settings on record: CHO cells expressing the human orexin-1 receptor; 10 nM orexin-A as agonist; fluo-3 calcium signal. As to the method:
as §1, §2, §3, §4, §5, §6, §7

SMILES strings stand for the structures.

In the case of `O=C(c1ccccc1-c1ccccc1)N1CCC[C@@H](Nc2ncc(Br)cn2)C1` [Example 1, (R)-Biphenyl-2-yl-[3-(5-bromo-pyrimidin-2-ylamino)-piperidin-1-yl]-methanone], the half-maximal inhibitory concentration (IC50) (in general, the concentration at which inhibition is half-maximal) was 392 nM at human orexin-2 receptor and 294 nM on human orexin-1 receptor.

In the case of `O=C(c1ccccc1-c1ccccc1F)N1CCC[C@@H](Nc2ncc(Br)cn2)C1` [Example 3, (R)-[3-(5-Bromo-pyrimidin-2-ylamino)-piperidin-1-yl]-(2′-fluoro-biphenyl-2-yl)-methanone], the IC50 at human orexin-2 receptor was determined as 171 nM; at human orexin-1 receptor it was 81 nM.

As for `Cc1cccc(-c2sc(C)nc2C(=O)N2CCC[C@@H](NC(=O)c3c(C)nc4sccn34)C2)c1` [Example 7, (R)-6-Methyl-imidazo[2,1-b]thiazole-5-carboxylic acid[1-(2-methyl-5-m-tolyl-thiazole-4-carbonyl)-piperidin-3-yl]-amide], the half-inhibitory concentration (IC50) amounted to 50 nM on human orexin-2 receptor and 27 nM at human orexin-1 receptor.

Take `Cc1ccc(-c2sc(C)nc2C(=O)N2CCC[C@@H](NC(=O)c3c(C)nc4sccn34)C2)cc1` [Example 9, (R)-6-Methyl-imidazo[2,1-b]thiazole-5-carboxylic acid[1-(2-methyl-5-p-tolyl-thiazole-4-carbonyl)-piperidin-3-yl]-amide]: the results for the IC50 at human orexin-2 receptor and on human orexin-1 receptor were 165 nM and 101 nM, respectively.

On to `Cc1nc(C(=O)N2CCC[C@@H](NC(=O)c3c(C)nc4sccn34)C2)c(-c2ccccc2F)s1` [Example 15, (R)-6-Methyl-imidazo[2,1-b]thiazole-5-carboxylic acid{1-[5-(2-fluoro-phenyl)-2-methyl-thiazole-4-carbonyl]-piperidin-3-yl}-amide], for which the half-maximal inhibitory concentration (IC50) on human orexin-2 receptor came out at 97 nM; on human orexin-1 receptor it was 65 nM.
